Values of other authors as cited in article PMC10299363 (International Journal of Molecular Sciences, 2023).

Assays:
chemically induced PDACs = conditions: subcutaneous injection, rats
Source text: The galaninergic system is also involved in tumorigenesis, the invasion/migration of tumor cells and angiogenesis, and has been correlated with the tumor stage, proliferation, metastasis, and recurrence rate. […] The inactivation of GAL2R by promoter hypermethylation decreased disease-free survival. GAL2R strongly exerted anti-tumor activity via two important mechanisms: (1) tumor cell cycle arrest mediated via the extracellular-regulated protein kinase-1/2 (ERK1/2)-dependent effects on the cyc ...

head and neck cancer = conditions: via activation of PBMCs

Substance | number of chemically induced PDACs (chemically induced PDACs) | effect on insulin secretion (insulin secretion) | effect in head and neck cancer (head and neck cancer) | binding to GAL2R (GAL2R) | binding to GAL3R (GAL3R) | breakdown in vivo
galanin: 30 amino acid peptide that stimulates three subtype receptors (GAL1–3R) | reduced the number of chemically induced PDACs | strong inhibitory effects toward insulin secretion | pro-tumor effects | binds | binds | –
linear angiotensin: linear angiotensin (ref 33: radioiodinated angiotensin II) (DRVYIHPF; Angiotensin-2; UniProt P01019 25-32, looked up) | – | – | – | – | – | broken down within a minute
